The record followed here is PubChem BioAssay (NCI).

Among the test systems are OVCAR-8 ovarian; MDA-MB-231 breast; HS 578T breast; UACC-62 melanoma; BT-549 breast; HOP-92 NSCLC; SF-295 CNS; HL-60(TB) leukemia; MALME-3M melanoma; LOX IMVI melanoma; COLO 205 colon; IGROV1 ovarian; DU-145 prostate; T-47D breast; SK-OV-3 ovarian; RXF 393 renal; UACC-257 melanoma; M14 melanoma.
Common to all, as to assay: growth of human tumour cells (NCI), 48 h

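Cells were grown in 96-well plates and exposed to each compound for 48 hours at five concentrations; endpoints were interpolated linearly between bracketing concentrations, or set to the highest concentration if not reached. TGI is the concentration that stops growth completely.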

For the compound `CCCCCCCC1(N=[N+]=[N-])C(=O)c2ccccc2N(C)C1=O` (stereo unspecified), the TGI in the assay with OVCAR-8 ovarian was more than 100 µM; in the assay with MDA-MB-231 breast, more than 100 µM; with HS 578T breast it was more than 100 µM; in the assay on UACC-62 melanoma, more than 100 µM; in the assay with BT-549 breast it was more than 100 µM; in the assay on HOP-92 NSCLC, 89.6 µM. In addition, the TGI with SF-295 CNS was more than 100 µM; with HL-60(TB) leukemia, 99.1 µM; in the assay with MALME-3M melanoma it was more than 100 µM; with LOX IMVI melanoma it was more than 100 µM; in the assay with COLO 205 colon, more than 100 µM; in the assay with IGROV1 ovarian, more than 100 µM. Besides, the TGI with DU-145 prostate, in the assay on T-47D breast, in the assay with SK-OV-3 ovarian, in the assay on RXF 393 renal, with UACC-257 melanoma and with M14 melanoma was more than 100 µM each time.
For `O=C1/C(=C/c2cccnc2)C(n2cccc2)c2c(Br)sc(Br)c21` (stereo unspecified), the TGI with OVCAR-8 ovarian came to 4.81 µM; in the assay with MDA-MB-231 breast it was 3.3 µM; in the assay with HS 578T breast, 9.66 µM; with UACC-62 melanoma, 4.49 µM; in the assay with BT-549 breast it was 37.6 µM; in the assay with HOP-92 NSCLC, 4.64 µM. Further, the TGI with SF-295 CNS was determined as 32 µM; in the assay with HL-60(TB) leukemia, 5.57 µM; with MALME-3M melanoma, 10.7 µM; with LOX IMVI melanoma, 3.89 µM; with COLO 205 colon, 21.6 µM; in the assay with IGROV1 ovarian, 3.38 µM. In addition, the TGI in the assay on DU-145 prostate came to 3.53 µM; in the assay on T-47D breast, 6.25 µM; with SK-OV-3 ovarian, 29.3 µM; in the assay with RXF 393 renal it was 4.45 µM; with UACC-257 melanoma, 3.36 µM; in the assay with M14 melanoma, 4.85 µM.
In the case of `CCOc1ccc(N=NC2C(=O)N(C(=O)CC(=O)Nc3ccccc3OC)N=C2C)cc1` (stereo unspecified), the TGI with OVCAR-8 ovarian is more than 100 µM; in the assay with MDA-MB-231 breast, more than 51.7 µM; in the assay with HS 578T breast, more than 100 µM; in the assay on UACC-62 melanoma, more than 100 µM; with BT-549 breast, more than 48.4 µM; in the assay on HOP-92 NSCLC, more than 50.6 µM. Moreover, the TGI with SF-295 CNS was more than 53.8 µM; in the assay with HL-60(TB) leukemia, 22.5 µM; in the assay on MALME-3M melanoma, more than 100 µM; in the assay with LOX IMVI melanoma, more than 100 µM; with COLO 205 colon, more than 100 µM; with IGROV1 ovarian, more than 100 µM. The TGI with DU-145 prostate was more than 100 µM; with T-47D breast, more than 100 µM; with SK-OV-3 ovarian, more than 87.4 µM; in the assay on RXF 393 renal it was 26.3 µM; with UACC-257 melanoma, more than 100 µM; with M14 melanoma it was more than 100 µM.
Consider `O=C(O)CN1CCNCCN(CP(=O)(O)O)CC1`, for which the TGI in the assay with OVCAR-8 ovarian was more than 22.9 µM; in the assay with MDA-MB-231 breast it was more than 100 µM; in the assay with HS 578T breast, more than 100 µM; in the assay on UACC-62 melanoma, more than 100 µM; in the assay with BT-549 breast it was more than 100 µM; in the assay on HOP-92 NSCLC, more than 100 µM. In addition, the TGI with SF-295 CNS was more than 100 µM; in the assay on HL-60(TB) leukemia, 8.41 µM; with MALME-3M melanoma, more than 100 µM; in the assay with LOX IMVI melanoma, more than 100 µM; with COLO 205 colon, more than 100 µM; in the assay on IGROV1 ovarian, more than 100 µM. Besides, the TGI in the assay with DU-145 prostate, in the assay on T-47D breast, with SK-OV-3 ovarian, in the assay with RXF 393 renal, in the assay with UACC-257 melanoma and with M14 melanoma was more than 100 µM each time.
Regarding `CCOC(=O)c1c(N)nn2c1cc1cccccc12`, the TGI in the assay on OVCAR-8 ovarian was 73.1 µM; with MDA-MB-231 breast it was more than 100 µM; in the assay on HS 578T breast, 82.8 µM; in the assay on UACC-62 melanoma, 50.8 µM; with BT-549 breast it was 65.2 µM; in the assay on HOP-92 NSCLC, 95.8 µM. The TGI in the assay with SF-295 CNS is 86.7 µM; with HL-60(TB) leukemia it was more than 100 µM; in the assay on MALME-3M melanoma it was 67.3 µM; with LOX IMVI melanoma, 72.9 µM; in the assay with COLO 205 colon, 78.4 µM; with IGROV1 ovarian it was 94.8 µM. The TGI in the assay with DU-145 prostate was more than 100 µM; with T-47D breast it was 64.4 µM; with SK-OV-3 ovarian, more than 100 µM; with RXF 393 renal it was more than 100 µM; in the assay on UACC-257 melanoma it was 71.5 µM; in the assay on M14 melanoma, more than 100 µM.
`COc1cc(N(CCC#N)CCC#N)ccc1/C=C1\SC(=S)NC1=O`: the TGI in the assay with OVCAR-8 ovarian, in the assay on MDA-MB-231 breast, in the assay on HS 578T breast, with UACC-62 melanoma, with BT-549 breast and in the assay with HOP-92 NSCLC was more than 100 µM each time. For the same compound, the TGI in the assay on SF-295 CNS, in the assay with HL-60(TB) leukemia, in the assay with MALME-3M melanoma, in the assay with LOX IMVI melanoma, in the assay with COLO 205 colon and in the assay on IGROV1 ovarian was more than 100 µM in each case. The TGI in the assay with DU-145 prostate, in the assay on T-47D breast, in the assay on SK-OV-3 ovarian, in the assay on RXF 393 renal, with UACC-257 melanoma and with M14 melanoma was more than 100 µM in each case.
For the compound `COc1cc(/C=C2\C[C@H]3[C@@H]4CC=C5C[C@@H](O)CC[C@]5(C)[C@H]4CC[C@]3(C)[C@H]2O)cc(OC)c1OC`, the TGI with OVCAR-8 ovarian is more than 100 µM; in the assay on MDA-MB-231 breast it was 41.7 µM; in the assay on HS 578T breast, more than 100 µM; in the assay with UACC-62 melanoma, 39.3 µM; in the assay on BT-549 breast, 56.8 µM; with HOP-92 NSCLC it was 65.8 µM. Besides, the TGI in the assay with SF-295 CNS is 22.4 µM; in the assay with HL-60(TB) leukemia it was 23 µM; with MALME-3M melanoma, more than 100 µM; in the assay on LOX IMVI melanoma, 27.3 µM; in the assay with COLO 205 colon, 42.2 µM; in the assay with IGROV1 ovarian it was more than 100 µM. Besides, the TGI in the assay on DU-145 prostate is more than 100 µM; in the assay with T-47D breast, 72.6 µM; with SK-OV-3 ovarian, more than 100 µM; with RXF 393 renal, 18.3 µM; with UACC-257 melanoma, 83.1 µM; with M14 melanoma it was 61.7 µM.
As for `COC1=C2CC(C)CC(OC)[C@@H](OC(=O)CCN)[C@H](C)/C=C(\C)C(OC(N)=O)C(OC)/C=C\C=C(/C)C(=O)NC(=CC1=O)C2=O` (stereo partly specified), the TGI with OVCAR-8 ovarian turned out to be 15.5 µM; in the assay on MDA-MB-231 breast, 7.47 µM; in the assay on HS 578T breast it was 16.9 µM; in the assay with UACC-62 melanoma it was 4.34 µM; with BT-549 breast, 16.9 µM; in the assay with HOP-92 NSCLC it was 2.05 µM. In addition, the TGI in the assay on SF-295 CNS was found to be 30.1 µM; with HL-60(TB) leukemia it was 0.757 µM; in the assay on MALME-3M melanoma it was 16.3 µM; in the assay on LOX IMVI melanoma it was 2.22 µM; with COLO 205 colon, 0.964 µM; with IGROV1 ovarian it was 3.25 µM. Also, the TGI was found to be 20.8 µM in the assay on DU-145 prostate; 1.68 µM in the assay with T-47D breast; 25.4 µM with SK-OV-3 ovarian; 17.5 µM in the assay on RXF 393 renal; 2.82 µM in the assay on UACC-257 melanoma; 19.5 µM in the assay on M14 melanoma.
Consider `CC(C)/C(Cl)=N\OC(=O)Nc1cccc(F)c1`, for which the TGI in the assay on OVCAR-8 ovarian is 31.1 µM; in the assay with MDA-MB-231 breast, 31.4 µM; with HS 578T breast it was 63.2 µM; with UACC-62 melanoma it was 45.3 µM; in the assay with BT-549 breast it was 19.5 µM; with HOP-92 NSCLC, 4.69 µM. The TGI with SF-295 CNS was more than 53.9 µM; in the assay with HL-60(TB) leukemia, 4.05 µM; in the assay on MALME-3M melanoma, 14.4 µM; with LOX IMVI melanoma, 5.31 µM; in the assay on COLO 205 colon, 5.87 µM; in the assay on IGROV1 ovarian, 36.2 µM. Further, the TGI worked out at 32.5 µM in the assay with DU-145 prostate; 61.6 µM in the assay with T-47D breast; 35.2 µM with SK-OV-3 ovarian; 31 µM in the assay with RXF 393 renal; 30 µM in the assay with UACC-257 melanoma; 10.8 µM with M14 melanoma.
On to `CC(C)=CCC[C@@H](C)C1=C(O)C(Nc2ccccc2Br)=C(C)C(=O)C1=O`, for which the TGI stood at 73 µM with OVCAR-8 ovarian; 61.9 µM in the assay with MDA-MB-231 breast; 49.3 µM with HS 578T breast; 38.5 µM in the assay on UACC-62 melanoma; 50.1 µM with BT-549 breast; 30.8 µM in the assay on HOP-92 NSCLC. Moreover, the TGI in the assay on SF-295 CNS is 28.1 µM; in the assay with HL-60(TB) leukemia it was 5.52 µM; in the assay with MALME-3M melanoma it was 26 µM; with LOX IMVI melanoma, more than 100 µM; in the assay on COLO 205 colon, 32.3 µM; in the assay with IGROV1 ovarian, 37.3 µM. Also, the TGI in the assay on DU-145 prostate was found to be 20.7 µM; in the assay on T-47D breast it was 66.4 µM; in the assay on SK-OV-3 ovarian, 68 µM; with RXF 393 renal, 32.9 µM; in the assay on UACC-257 melanoma, 43.6 µM; in the assay with M14 melanoma, 29.8 µM.
As to `CN(NC(=O)c1ccco1)C1=NCCN1`, the TGI in the assay on OVCAR-8 ovarian, in the assay on MDA-MB-231 breast, in the assay with HS 578T breast, in the assay on UACC-62 melanoma, with BT-549 breast and in the assay with HOP-92 NSCLC was more than 100 µM in each case. Besides, the TGI in the assay with SF-295 CNS, with HL-60(TB) leukemia, with MALME-3M melanoma, in the assay with LOX IMVI melanoma, in the assay with COLO 205 colon and in the assay with IGROV1 ovarian was more than 100 µM in each case. In addition, the TGI in the assay with DU-145 prostate, in the assay on T-47D breast, in the assay with SK-OV-3 ovarian, with RXF 393 renal, with UACC-257 melanoma and in the assay on M14 melanoma was more than 100 µM each time.
As to `C=CCc1cc(-c2cc(CC=C)c(O)c(CN(CCCl)CCCl)c2)cc(CN(CCCl)CCCl)c1O`, the TGI in the assay on OVCAR-8 ovarian was 74.1 µM; in the assay with MDA-MB-231 breast it was 45.2 µM; in the assay on HS 578T breast, more than 100 µM; in the assay with UACC-62 melanoma, 28.9 µM; in the assay with BT-549 breast, 66.9 µM; in the assay with HOP-92 NSCLC, 32.2 µM. The TGI was 38.7 µM with SF-295 CNS; more than 100 µM in the assay with HL-60(TB) leukemia; 42.6 µM in the assay on MALME-3M melanoma; more than 80.8 µM in the assay on LOX IMVI melanoma; 43.4 µM in the assay on COLO 205 colon; 38.9 µM in the assay with IGROV1 ovarian. Besides, the TGI amounted to 30.8 µM in the assay with DU-145 prostate; 24.8 µM with T-47D breast; 46.9 µM with SK-OV-3 ovarian; 35.8 µM with RXF 393 renal; 33.7 µM with UACC-257 melanoma; 38.3 µM in the assay with M14 melanoma.
